# System: Eleocharis acicularis (needle spikerush)
# Assay: Test Example-1: herbicidal effect by a treatment before weeds are generated under submerged conditions
# Format: in vivo
# Conditions: 500 g a.i/ha, pre-emergence treatment, about 15 days after treatment, score 0-5
# How it was run: (§1)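 Paddy soil in cups was puddled, seeded with the weeds and kept flooded; compound as wettable powder or emulsifiable concentrate was diluted and applied into the water on the seeding day at a set dosage. Effect was scored about 15 days later on a 0–5 scale.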
row,Compound,Herbicidal effect Eleocharis acicularis
1,COc1cc(-c2c(Cl)n3n(c2=O)CCOCC3)c(F)cc1F [Example 1-89],5 (Herbicidal effect/phytotoxicity was 90% or greater)
2,C#CCOc1cc(-c2c(Cl)n3n(c2=O)CCCCC3)c(F)cc1F [Example 1-367],5 (Herbicidal effect/phytotoxicity was 90% or greater)
3,CCOC(=O)C(OCC)Oc1ccccc1Oc1cc(-c2c(Cl)n3n(c2=O)CCCC3)c(F)cc1Cl (stereo not drawn) [Compound 3-18],5 (Herbicidal effect/phytotoxicity was 90% or greater)

# System: Scirpus juncoides (bulrush)
# Assay: as above
# Format: in vivo
# Conditions: 500 g a.i/ha, pre-emergence treatment, about 15 days after treatment, score 0-5
# How it was run: as §1
row,Compound,Herbicidal effect Scirpus juncoides
1,COc1cc(-c2c(Cl)n3n(c2=O)CCOCC3)c(F)cc1F [Example 1-89],5 (Herbicidal effect/phytotoxicity was 90% or greater)
2,C#CCOc1cc(-c2c(Cl)n3n(c2=O)CCCCC3)c(F)cc1F [Example 1-367],5 (Herbicidal effect/phytotoxicity was 90% or greater)
3,CCOC(=O)C(OCC)Oc1ccccc1Oc1cc(-c2c(Cl)n3n(c2=O)CCCC3)c(F)cc1Cl (stereo not drawn) [Compound 3-18],5 (Herbicidal effect/phytotoxicity was 90% or greater)

# System: Cyperus difformis (smallflower umbrella plant)
# Assay: as above
# Format: in vivo
# Conditions: 500 g a.i/ha, pre-emergence treatment, about 15 days after treatment, score 0-5
# How it was run: as §1
row,Compound,Herbicidal effect Cyperus difformis
1,COc1cc(-c2c(Cl)n3n(c2=O)CCOCC3)c(F)cc1F [Example 1-89],5 (Herbicidal effect/phytotoxicity was 90% or greater)
2,C#CCOc1cc(-c2c(Cl)n3n(c2=O)CCCCC3)c(F)cc1F [Example 1-367],5 (Herbicidal effect/phytotoxicity was 90% or greater)
3,CCOC(=O)C(OCC)Oc1ccccc1Oc1cc(-c2c(Cl)n3n(c2=O)CCCC3)c(F)cc1Cl (stereo not drawn) [Compound 3-18],5 (Herbicidal effect/phytotoxicity was 90% or greater)

# System: other annual broad leaf weeds (Lindernia procumbens, Rotala indica, Elatine triandra)
# Assay: as above
# Format: in vivo
# Conditions: 500 g a.i/ha, pre-emergence treatment, about 15 days after treatment, score 0-5
# How it was run: as §1
row,Compound,Herbicidal effect Broadleaf weed
1,COc1cc(-c2c(Cl)n3n(c2=O)CCOCC3)c(F)cc1F [Example 1-89],5 (Herbicidal effect/phytotoxicity was 90% or greater)
2,C#CCOc1cc(-c2c(Cl)n3n(c2=O)CCCCC3)c(F)cc1F [Example 1-367],5 (Herbicidal effect/phytotoxicity was 90% or greater)
3,CCOC(=O)C(OCC)Oc1ccccc1Oc1cc(-c2c(Cl)n3n(c2=O)CCCC3)c(F)cc1Cl (stereo not drawn) [Compound 3-18],5 (Herbicidal effect/phytotoxicity was 90% or greater)

# System: Echinochloa oryzicola (barnyard grass)
# Assay: as above
# Format: in vivo
# Conditions: 500 g a.i/ha, pre-emergence treatment, about 15 days after treatment, score 0-5
# How it was run: as §1
row,Compound,Herbicidal effect Echinochloa oryzicola
1,COc1cc(-c2c(Cl)n3n(c2=O)CCOCC3)c(F)cc1F [Example 1-89],5 (Herbicidal effect/phytotoxicity was 90% or greater)
2,C#CCOc1cc(-c2c(Cl)n3n(c2=O)CCCCC3)c(F)cc1F [Example 1-367],5 (Herbicidal effect/phytotoxicity was 90% or greater)
3,CCOC(=O)C(OCC)Oc1ccccc1Oc1cc(-c2c(Cl)n3n(c2=O)CCCC3)c(F)cc1Cl (stereo not drawn) [Compound 3-18],5 (Herbicidal effect/phytotoxicity was 90% or greater)

# System: Monochoria vaginalis (monochoria)
# Assay: as above
# Format: in vivo
# Conditions: 500 g a.i/ha, pre-emergence treatment, about 15 days after treatment, score 0-5
# How it was run: as §1
row,Compound,Herbicidal effect Monochoria vaginalis
1,COc1cc(-c2c(Cl)n3n(c2=O)CCOCC3)c(F)cc1F [Example 1-89],5 (Herbicidal effect/phytotoxicity was 90% or greater)
2,C#CCOc1cc(-c2c(Cl)n3n(c2=O)CCCCC3)c(F)cc1F [Example 1-367],5 (Herbicidal effect/phytotoxicity was 90% or greater)
3,CCOC(=O)C(OCC)Oc1ccccc1Oc1cc(-c2c(Cl)n3n(c2=O)CCCC3)c(F)cc1Cl (stereo not drawn) [Compound 3-18],5 (Herbicidal effect/phytotoxicity was 90% or greater)

# System: Chenopodium album (common lambsquarters)
# Assay: Test Example-2: herbicidal effect by a soil treatment before weeds are generated under upland field conditions
# Format: in vivo
# Conditions: application amount 500 g a.i/ha, soil spray treatment before weeds are generated, about 21 days after the treatment, score 0 to 5
# From the text: (§2) Using the formulation prepared according to the methods described above, the herbicidal effect of the bicyclic pyrazolinone derivative of the invention according to the methods shown in Test Examples below was examined. The herbicidal effect with respect to the test weeds or the phytotoxicity with respect to the test crops was examined according to the following criteria, and evaluated in six stage scores of 0 to 5. A vat having an area of 81 cm^2 and a depth of 3.5 cm was filled with upland soil, then, seeds of Amaranthus viridis (green amaranthus), Chenopodium album (common lambsquarters), and corn were seeded thereto, and the seeds were covered with soil of about 0.5 cm. Next day, a wettable powder or an emulsifiable concentrate of the compound of the present invention prepared according to Formulation Example was diluted, and a spray treatment was uniformly performed on the covered oil so as to be a predetermined dosage. The herbicidal effect with respect to the test weeds and the phytotoxicity with respect to corn about 21 days after the treatment were evaluated according to the evaluation criteria in six stages of 0 to 5 described above.
row,Compound,Herbicidal effect Chenopodium album
1,COc1cc(-c2c(Cl)n3n(c2=O)CCOCC3)c(F)cc1F [Example 1-89],5 (Herbicidal effect/phytotoxicity was 90% or greater)
2,Cc1ccc(Oc2cc(-c3c(Cl)n4n(c3=O)CCCC4)c(F)cc2Cl)c(O)c1 [Compound 3-40],5 (Herbicidal effect/phytotoxicity was 90% or greater)
3,C#CCOc1cc(-c2c(Cl)n3n(c2=O)CCCCC3)c(F)cc1F [Example 1-367],5 (Herbicidal effect/phytotoxicity was 90% or greater)
4,CCOC(=O)C(OCC)Oc1ccccc1Oc1cc(-c2c(Cl)n3n(c2=O)CCCC3)c(F)cc1Cl (stereo not drawn) [Compound 3-18],5 (Herbicidal effect/phytotoxicity was 90% or greater)
5,C#CCOc1cc(-c2c(Cl)n3n(c2=O)CCCC3)c(F)cc1[N+](=O)[O-] [Example 1-418],5 (Herbicidal effect/phytotoxicity was 90% or greater)

# System: Amaranthus viridis (green amaranthus)
# Assay: as above
# Format: in vivo
# Conditions: application amount 500 g a.i/ha, soil spray treatment before weeds are generated, about 21 days after the treatment, score 0 to 5
# From the text: as §2
row,Compound,Herbicidal effect Amaranthus viridis
1,COc1cc(-c2c(Cl)n3n(c2=O)CCOCC3)c(F)cc1F [Example 1-89],5 (Herbicidal effect/phytotoxicity was 90% or greater)
2,Cc1ccc(Oc2cc(-c3c(Cl)n4n(c3=O)CCCC4)c(F)cc2Cl)c(O)c1 [Compound 3-40],5 (Herbicidal effect/phytotoxicity was 90% or greater)
3,C#CCOc1cc(-c2c(Cl)n3n(c2=O)CCCCC3)c(F)cc1F [Example 1-367],5 (Herbicidal effect/phytotoxicity was 90% or greater)
4,CCOC(=O)C(OCC)Oc1ccccc1Oc1cc(-c2c(Cl)n3n(c2=O)CCCC3)c(F)cc1Cl (stereo not drawn) [Compound 3-18],5 (Herbicidal effect/phytotoxicity was 90% or greater)
5,C#CCOc1cc(-c2c(Cl)n3n(c2=O)CCCC3)c(F)cc1[N+](=O)[O-] [Example 1-418],5 (Herbicidal effect/phytotoxicity was 90% or greater)

# System: corn
# Assay: Test Example-2: phytotoxicity by a soil treatment before weeds are generated under upland field conditions
# Format: in vivo
# Conditions: application amount 500 g a.i/ha, soil spray treatment before weeds are generated, about 21 days after the treatment, score 0 to 5
# From the text: as §2
row,Compound,Phytotoxicity Corn
1,COc1cc(-c2c(Cl)n3n(c2=O)CCOCC3)c(F)cc1F [Example 1-89],0 (Herbicidal effect/phytotoxicity was 0% to 10%)
2,Cc1ccc(Oc2cc(-c3c(Cl)n4n(c3=O)CCCC4)c(F)cc2Cl)c(O)c1 [Compound 3-40],0 (Herbicidal effect/phytotoxicity was 0% to 10%)
3,C#CCOc1cc(-c2c(Cl)n3n(c2=O)CCCCC3)c(F)cc1F [Example 1-367],0 (Herbicidal effect/phytotoxicity was 0% to 10%)
4,CCOC(=O)C(OCC)Oc1ccccc1Oc1cc(-c2c(Cl)n3n(c2=O)CCCC3)c(F)cc1Cl (stereo not drawn) [Compound 3-18],0 (Herbicidal effect/phytotoxicity was 0% to 10%)
5,C#CCOc1cc(-c2c(Cl)n3n(c2=O)CCCC3)c(F)cc1[N+](=O)[O-] [Example 1-418],0 (Herbicidal effect/phytotoxicity was 0% to 10%)

# From patent publication US9580444B2, “Polycyclic pyrazolinone derivative and herbicide comprising same as effective component thereof” (priority 2013, dated 2017)
